Measurements taken from patent US9238656B2, “Imidazo[4,5-b]pyridine derivatives as ALK and JAK modulators for the treatment of proliferative disorders” (priority 2012, dated 2016).

Key:
[1] = molecular target: baculovirus-expressed JAK2 kinase (Homo sapiens, UniProt O60674); experiment: biochemical; details: 0.2 μM ATP; read-out: JAK2 Potency
Procedure, shortened: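 IC50 derived by variable-slope sigmoidal fit of percent inhibition against log compound concentration. Baculovirus-expressed JAK2 (15 ng/mL) phosphorylated a plate-bound biotinylated 15-mer peptide for 20 min at room temperature; detection by time-resolved fluorescence.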

[2] = molecular target: baculovirus-expressed ALK (Homo sapiens, UniProt Q9UM73); experiment: ALK kinase inhibition, TRF/ELISA; assay type: biochemical; details: read-out: ALK Potency
Procedure, shortened: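 Eu-PT66 anti-phosphotyrosine TRF read-out measured phosphorylation of plate-bound GST-PLC-γ (coated at 10 μg/mL). The phosphorylation was driven by 30 ng/mL ALK for 15 minutes at 37° C.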

Chain of baculovirus-expressed JAK2 kinase (O60674 whole entry): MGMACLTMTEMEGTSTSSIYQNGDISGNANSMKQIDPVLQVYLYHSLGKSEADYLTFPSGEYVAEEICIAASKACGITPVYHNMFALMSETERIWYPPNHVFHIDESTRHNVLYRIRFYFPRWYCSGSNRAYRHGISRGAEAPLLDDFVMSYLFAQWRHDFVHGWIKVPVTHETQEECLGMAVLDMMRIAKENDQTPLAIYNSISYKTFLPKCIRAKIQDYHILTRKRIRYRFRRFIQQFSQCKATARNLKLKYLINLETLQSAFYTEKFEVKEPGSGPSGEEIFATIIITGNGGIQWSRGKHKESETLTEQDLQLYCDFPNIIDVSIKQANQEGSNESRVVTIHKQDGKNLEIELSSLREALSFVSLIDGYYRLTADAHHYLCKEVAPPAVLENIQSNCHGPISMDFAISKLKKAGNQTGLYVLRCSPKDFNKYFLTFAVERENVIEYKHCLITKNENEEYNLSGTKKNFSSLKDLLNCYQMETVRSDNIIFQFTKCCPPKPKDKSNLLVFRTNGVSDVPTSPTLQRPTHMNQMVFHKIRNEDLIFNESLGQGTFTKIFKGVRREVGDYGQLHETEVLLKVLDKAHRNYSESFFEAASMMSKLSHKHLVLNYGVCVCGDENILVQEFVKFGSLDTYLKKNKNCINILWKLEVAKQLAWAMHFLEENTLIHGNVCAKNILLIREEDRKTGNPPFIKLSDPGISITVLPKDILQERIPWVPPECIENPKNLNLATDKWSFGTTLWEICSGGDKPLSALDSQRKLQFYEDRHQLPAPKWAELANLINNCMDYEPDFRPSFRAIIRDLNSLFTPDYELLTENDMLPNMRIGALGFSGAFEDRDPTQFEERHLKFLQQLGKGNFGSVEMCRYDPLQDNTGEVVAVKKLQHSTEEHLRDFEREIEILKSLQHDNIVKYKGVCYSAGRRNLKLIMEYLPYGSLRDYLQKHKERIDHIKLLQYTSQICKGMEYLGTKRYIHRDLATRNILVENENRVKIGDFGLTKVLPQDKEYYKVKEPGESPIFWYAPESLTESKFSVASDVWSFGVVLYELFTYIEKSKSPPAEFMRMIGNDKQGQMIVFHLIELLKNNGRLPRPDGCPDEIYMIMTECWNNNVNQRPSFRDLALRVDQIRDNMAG
Chain of baculovirus-expressed ALK (Q9UM73 19-1620): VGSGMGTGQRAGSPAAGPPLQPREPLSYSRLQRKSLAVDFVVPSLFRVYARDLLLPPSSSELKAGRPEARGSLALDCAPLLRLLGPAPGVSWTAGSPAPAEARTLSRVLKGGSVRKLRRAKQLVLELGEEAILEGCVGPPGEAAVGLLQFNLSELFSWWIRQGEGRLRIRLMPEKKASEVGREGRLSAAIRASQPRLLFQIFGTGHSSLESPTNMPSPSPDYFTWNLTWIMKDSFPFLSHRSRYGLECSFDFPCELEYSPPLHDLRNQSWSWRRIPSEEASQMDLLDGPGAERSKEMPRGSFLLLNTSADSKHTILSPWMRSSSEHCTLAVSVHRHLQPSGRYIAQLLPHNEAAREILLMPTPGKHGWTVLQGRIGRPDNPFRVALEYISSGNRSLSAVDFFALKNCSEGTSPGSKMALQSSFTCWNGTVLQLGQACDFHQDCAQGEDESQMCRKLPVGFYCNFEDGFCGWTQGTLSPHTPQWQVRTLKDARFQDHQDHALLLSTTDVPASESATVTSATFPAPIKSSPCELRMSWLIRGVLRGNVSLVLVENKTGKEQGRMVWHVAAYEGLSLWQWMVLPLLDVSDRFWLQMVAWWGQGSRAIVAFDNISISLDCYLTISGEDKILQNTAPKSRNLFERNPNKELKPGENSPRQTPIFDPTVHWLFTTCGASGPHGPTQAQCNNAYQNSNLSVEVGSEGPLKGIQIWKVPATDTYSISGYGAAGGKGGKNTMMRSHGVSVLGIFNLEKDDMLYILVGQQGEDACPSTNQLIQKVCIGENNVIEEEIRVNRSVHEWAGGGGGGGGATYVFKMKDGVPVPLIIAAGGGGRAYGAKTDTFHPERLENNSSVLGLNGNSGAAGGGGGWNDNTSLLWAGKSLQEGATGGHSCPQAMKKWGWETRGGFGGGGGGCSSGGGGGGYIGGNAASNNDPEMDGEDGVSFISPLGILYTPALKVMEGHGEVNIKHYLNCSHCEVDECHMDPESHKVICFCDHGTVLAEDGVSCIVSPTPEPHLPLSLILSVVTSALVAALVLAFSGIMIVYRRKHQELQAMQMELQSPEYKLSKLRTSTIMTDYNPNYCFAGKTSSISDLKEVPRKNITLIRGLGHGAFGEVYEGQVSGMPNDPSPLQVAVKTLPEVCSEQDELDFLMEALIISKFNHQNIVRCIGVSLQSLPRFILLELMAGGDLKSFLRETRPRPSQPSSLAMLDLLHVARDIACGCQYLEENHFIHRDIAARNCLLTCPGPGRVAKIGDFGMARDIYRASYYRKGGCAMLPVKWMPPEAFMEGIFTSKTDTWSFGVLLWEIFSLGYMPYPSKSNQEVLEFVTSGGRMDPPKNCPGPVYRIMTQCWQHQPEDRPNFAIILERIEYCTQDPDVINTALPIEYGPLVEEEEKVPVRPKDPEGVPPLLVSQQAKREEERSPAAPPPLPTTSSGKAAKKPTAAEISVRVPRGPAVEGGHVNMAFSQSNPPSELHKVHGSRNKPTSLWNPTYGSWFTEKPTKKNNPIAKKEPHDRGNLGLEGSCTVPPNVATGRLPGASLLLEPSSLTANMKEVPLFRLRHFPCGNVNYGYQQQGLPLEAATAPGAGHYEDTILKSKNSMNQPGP

Row | SMILES | melting point [°C] | IC50 [1] [nM] | IC50 [2] [nM]
1 | COc1cc(N(C)C)ccc1-c1nc2c(N[C@H]3[C@@H](C(N)=O)[C@@H]4C=C[C@H]3C4)ccnc2[nH]1 [Compound XCIII, (1S,2S,3R,4R)-3-[2-(4-Dimethylamino-2-methoxy-phenyl)-3H-imidazo[4,5-b]pyridin-7-ylamino]-bicyclo[2.2.1]hept-5-ene-2-carboxylic acid amide] | 185 to 190 | > 10000 | > 10000
2 | CN(C)c1ccc(-c2nc3c(N[C@H]4[C@@H](C(N)=O)[C@@H]5C=C[C@H]4C5)c(Br)cnc3[nH]2)cc1 [Compound LXXVI, (1S,2S,3R,4R)-3-[6-Bromo-2-(4-dimethylamino-phenyl)-3H-imidazo[4,5-b]pyridin-7-ylamino]-bicyclo[2.2.1]hept-5-ene-2-carboxylic acid amide] | 264 to 265 | < 100 | < 100
3 | CN1CCN(c2ccc(-c3nc4c(N[C@@H]5[C@H]6CC[C@H](C6)[C@@H]5C(N)=O)c(Br)cnc4[nH]3)cc2)CC1 [Compound CXIII, (1R,2S,3R,4S)-3-{6-Bromo-2-[4-(4-methyl-piperazin-1-yl)-phenyl]-3H-imidazo[4,5-b]pyridin-7-ylamino}-bicyclo[2.2.1]heptane-2-carboxylic acid amide] | 256 to 258 | < 100 | < 100
4 | Cn1cc(-c2nc3c(N[C@H]4[C@@H](C(N)=O)[C@@H]5C=C[C@H]4C5)ccnc3[nH]2)cn1 [XCIV, (1S,2S,3R,4R)-3-[2-(1-Methyl-1H-pyrazol-4-yl)-3H-imidazo[4,5-b]pyridin-7-ylamino]-bicyclo[2.2.1]hept-5-ene-2-carboxylic acid amide] | 236 to 238 | 1000 to 10000 | > 10000
5 | CN(C)c1ccc(-c2nc3c(N[C@H]4[C@@H](C(N)=O)[C@@H]5C=C[C@H]4C5)ccnc3[nH]2)cc1 [Compound LXXXVI, (1S,2S,3R,4R)-3-[2-(4-Dimethylamino-phenyl)-3H-imidazo[4,5-b]pyridin-7-ylamino]-bicyclo[2.2.1]hept-5-ene-2-carboxylic acid amide] | 245 to 251 | 1000 to 10000 | > 10000
6 | COc1cc(CN2CCN(C[C@@H](C)O)CC2)ccc1-c1nc2c(N[C@H]3[C@@H](C(N)=O)[C@@H]4C=C[C@H]3C4)c(Cl)cnc2[nH]1 [Compound XLIV, (1S,2S,3R,4R)-3-(6-Chloro-2-{4-[4-((R)-2-hydroxypropyl)-piperazin-1-ylmethyl]-2-methoxyphenyl}-3H-imidazo[4,5-b]pyridine-7-ylamino)-bicyclo[2.2.1]hept-5-ene-2-carboxylic acid amide] | 157 to 159 | < 100 | < 100
7 | NC(=O)[C@@H]1[C@H](Nc2c(Br)cnc3[nH]c(-c4cccnc4N4CCOCC4)nc23)[C@H]2C=C[C@@H]1C2 [Compound CII, (1S,2S,3R,4R)-3-[6-Bromo-2-(2-morpholin-4-yl-pyridin-3-yl)-3H-imidazo[4,5-b]pyridin-7-ylamino]-bicyclo[2.2.1]hept-5-ene-2-carboxylic acid amide] | 150 | 1000 to 10000 | 1000 to 10000

The next lines start with the values.

Row | melting point [°C] | IC50 [1] [nM] | IC50 [2] [nM] | SMILES
8 | 231 to 232 | < 100 | 100 to 1000 | NC(=O)[C@@H]1[C@H](Nc2c(Br)cnc3[nH]c(-c4ccoc4)nc23)[C@H]2C=C[C@@H]1C2 [Compound CVIII, (1S,2S,3R,4R)-3-(6-Bromo-2-furan-3-yl-3H-imidazo[4,5-b]pyridin-7-ylamino)-bicyclo[2.2.1]hept-5-ene-2-carboxylic acid amide]
9 | 185 to 195 | < 100 | < 100 | COc1cc(N2CCC(N3CCOCC3)CC2)ccc1-c1nc2c(N[C@H]3[C@@H](C(N)=O)[C@@H]4C=C[C@H]3C4)c(Br)cnc2[nH]1 [Compound XCVII, (1S,2S,3R,4R)-3-{6-Bromo-2-[2-methoxy-4-(4-morpholin-4-yl-piperidin-1-yl)-phenyl]-3H-imidazo[4,5-b]pyridin-7-ylamino}-bicyclo[2.2.1]hept-5-ene-2-carboxylic acid amide]
10 | 208 to 209 | < 100 | < 100 | CN1CCN(Cc2ccc(-c3nc4c(N[C@H]5[C@@H](C(N)=O)[C@@H]6C=C[C@H]5C6)c(Br)cnc4[nH]3)cc2)CC1 [Compound C]
11 | 255 to 258 | < 100 | 100 to 1000 | Cn1cc(-c2nc3c(N[C@H]4[C@@H](C(N)=O)[C@@H]5C=C[C@H]4C5)c(Br)cnc3[nH]2)cn1 [Compound LXXXV, (1S,2S,3R,4R)-3-[6-Bromo-2-(1-methyl-1H-pyrazol-4-yl)-3H-imidazo[4,5-b]pyridin-7-ylamino]-bicyclo[2.2.1]hept-5-ene-2-carboxylic acid amide]
12 | 261 | < 100 | 100 to 1000 | NC(=O)[C@@H]1[C@H](Nc2c(Cl)cnc3[nH]c(-c4cccc(C(=O)N5CCNC(C(=O)O)C5)c4)nc23)[C@H]2C=C[C@@H]1C2 (stereo partly drawn) [Compound CCXXV, 4-(3-(7-((1R,2R,3S,4S)-3-carbamoylbicyclo[2.2.1]hept-5-en-2-ylamino)-6-chloro-3H-imidazo[4,5-b]pyridine-2-yl)benzoyl)piperazine-2-carboxylic acid]
13 | 288 to 290 | < 100 | < 100 | NC(=O)[C@@H]1[C@H](Nc2c(Br)cnc3[nH]c(-c4ccc(N5CCOCC5)nc4)nc23)[C@H]2C=C[C@@H]1C2 [Compound CXII, (1S,2S,3R,4R)-3-[6-Bromo-2-(6-morpholin-4-yl-pyridin-3-yl)-3H-imidazo[4,5-b]pyridin-7-ylamino]-bicyclo[2.2.1]hept-5-ene-2-carboxylic acid amide]
14 | 199 to 200 | 100 to 1000 | 1000 to 10000 | COc1ccc(-c2nc3c(N[C@H]4[C@@H](C(N)=O)[C@@H]5C=C[C@H]4C5)c(Cl)cnc3[nH]2)c(C2CCNCC2)c1 [Compound XXX, (1S,2S,3R,4R)-3-[6-Chloro-2-(4-methoxy-2-piperidin-4-yl-phenyl)-3H-imidazo[4,5-b]pyridine-7-ylamino]-bicyclo[2.2.1]hept-5-ene-2-carboxylic acid amide]
15 | 185 to 195 | < 100 | < 100 | COc1cc(N2CCC(N3CCN(C)CC3)CC2)ccc1-c1nc2c(N[C@H]3[C@@H](C(N)=O)[C@@H]4C=C[C@H]3C4)c(Br)cnc2[nH]1 [Compound XCVIII, (1S,2S,3R,4R)-3-(6-Bromo-2-{2-methoxy-4-[4-(4-methyl-piperazin-1-yl)-piperidin-1-yl]-phenyl}-3H-imidazo[4,5-b]pyridin-7-ylamino)-bicyclo[2.2.1]hept-5-ene-2-carboxylic acid amide]
16 | > 300 | < 100 | 100 to 1000 | NC(=O)[C@@H]1[C@H](Nc2c(Br)cnc3[nH]c(-c4cncnc4)nc23)[C@H]2C=C[C@@H]1C2 [Compound CVII, (1S,2S,3R,4R)-3-(6-Bromo-2-pyrimidin-5-yl-3H-imidazo[4,5-b]pyridin-7-ylamino)-bicyclo[2.2.1]hept-5-ene-2-carboxylic acid amide]
